Measured values: ChEMBL document CHEMBL1268872 (Bioorg Med Chem Lett, 2010)

Columns and labels:
[1] = biological target: T1, Mitogen-activated protein kinase 14 (Homo sapiens, UniProt Q16539); assay: Binding affinity to phosphorylated p38alpha assessed as change in melting temperature
[2] = biological target: T1, Mitogen-activated protein kinase 14; assay: Binding affinity to unphosphorylated p38alpha assessed as change in melting temperature
[3] = biological target: T1, Mitogen-activated protein kinase 14; assay: Binding affinity to unphosphorylated p38alpha by fluoroprobe binding assay
[4] = biological target: T1, Mitogen-activated protein kinase 14; assay: Binding affinity to phosphorylated p38alpha by fluoroprobe binding assay
[5] = biological target: T1, Mitogen-activated protein kinase 14; assay: Inhibition of p38alpha by fluoroprobe binding assay
[6] = biological target: Serine/threonine-protein kinase B-raf (Homo sapiens, UniProt P15056); assay: Inhibition of BRAF
Chain of Serine/threonine-protein kinase B-raf (P15056 whole entry): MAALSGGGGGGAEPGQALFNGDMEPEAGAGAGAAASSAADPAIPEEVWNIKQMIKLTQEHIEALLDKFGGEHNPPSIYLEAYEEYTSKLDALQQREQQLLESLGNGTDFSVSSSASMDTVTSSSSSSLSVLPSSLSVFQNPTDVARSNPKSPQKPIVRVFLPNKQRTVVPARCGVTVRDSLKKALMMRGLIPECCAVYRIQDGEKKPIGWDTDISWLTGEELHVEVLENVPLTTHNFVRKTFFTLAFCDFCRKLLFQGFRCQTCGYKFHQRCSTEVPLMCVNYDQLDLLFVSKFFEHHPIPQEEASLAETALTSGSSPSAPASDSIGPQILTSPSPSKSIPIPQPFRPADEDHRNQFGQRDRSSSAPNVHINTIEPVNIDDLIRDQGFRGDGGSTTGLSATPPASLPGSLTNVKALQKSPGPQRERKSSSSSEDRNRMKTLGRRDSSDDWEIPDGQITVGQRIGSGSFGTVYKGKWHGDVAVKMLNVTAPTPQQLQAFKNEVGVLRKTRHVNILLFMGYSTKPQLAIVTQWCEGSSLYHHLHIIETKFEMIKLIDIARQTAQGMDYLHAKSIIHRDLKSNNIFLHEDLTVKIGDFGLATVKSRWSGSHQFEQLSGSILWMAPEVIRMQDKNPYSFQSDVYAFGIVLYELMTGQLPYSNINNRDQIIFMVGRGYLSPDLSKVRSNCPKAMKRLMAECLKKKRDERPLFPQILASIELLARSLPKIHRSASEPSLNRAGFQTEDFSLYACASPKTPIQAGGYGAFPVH

Ephrin type-B receptor 2 = biological target: T2, Ephrin type-B receptor 2 (Homo sapiens, UniProt P29323); assay: Inhibition of EPHB2
T2 sequence (P29323 whole entry): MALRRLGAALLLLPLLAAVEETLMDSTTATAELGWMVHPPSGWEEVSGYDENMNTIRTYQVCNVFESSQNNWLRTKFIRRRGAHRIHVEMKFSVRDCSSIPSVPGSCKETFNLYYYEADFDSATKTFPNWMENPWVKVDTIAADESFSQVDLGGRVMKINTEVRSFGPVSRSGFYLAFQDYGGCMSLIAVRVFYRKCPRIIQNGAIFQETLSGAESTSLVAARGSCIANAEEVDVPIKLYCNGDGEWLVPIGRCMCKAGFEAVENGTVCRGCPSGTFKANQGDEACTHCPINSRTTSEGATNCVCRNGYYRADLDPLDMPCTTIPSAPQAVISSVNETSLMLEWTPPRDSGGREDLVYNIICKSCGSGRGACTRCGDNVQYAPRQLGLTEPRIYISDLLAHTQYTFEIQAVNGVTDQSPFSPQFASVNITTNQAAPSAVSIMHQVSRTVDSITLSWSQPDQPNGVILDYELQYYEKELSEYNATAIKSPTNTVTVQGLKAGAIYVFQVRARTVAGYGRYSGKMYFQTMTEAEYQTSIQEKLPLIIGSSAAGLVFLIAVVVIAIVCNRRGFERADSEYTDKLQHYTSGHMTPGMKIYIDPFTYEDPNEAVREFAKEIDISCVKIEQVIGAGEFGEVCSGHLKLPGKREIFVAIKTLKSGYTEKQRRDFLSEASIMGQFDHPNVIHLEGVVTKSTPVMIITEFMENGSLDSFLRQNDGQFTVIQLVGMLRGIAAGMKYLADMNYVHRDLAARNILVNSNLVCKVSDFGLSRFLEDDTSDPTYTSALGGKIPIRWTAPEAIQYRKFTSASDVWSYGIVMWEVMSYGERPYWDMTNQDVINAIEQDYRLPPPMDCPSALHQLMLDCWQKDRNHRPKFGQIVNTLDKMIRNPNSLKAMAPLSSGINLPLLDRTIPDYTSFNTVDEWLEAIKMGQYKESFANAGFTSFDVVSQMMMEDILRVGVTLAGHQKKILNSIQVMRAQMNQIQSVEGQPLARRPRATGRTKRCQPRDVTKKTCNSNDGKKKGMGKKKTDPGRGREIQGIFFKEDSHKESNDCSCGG

[7] = biological target: T1, Mitogen-activated protein kinase 14; assay: Inhibition of p38alpha autophosphorylation

T1 sequence (Q16539 whole entry): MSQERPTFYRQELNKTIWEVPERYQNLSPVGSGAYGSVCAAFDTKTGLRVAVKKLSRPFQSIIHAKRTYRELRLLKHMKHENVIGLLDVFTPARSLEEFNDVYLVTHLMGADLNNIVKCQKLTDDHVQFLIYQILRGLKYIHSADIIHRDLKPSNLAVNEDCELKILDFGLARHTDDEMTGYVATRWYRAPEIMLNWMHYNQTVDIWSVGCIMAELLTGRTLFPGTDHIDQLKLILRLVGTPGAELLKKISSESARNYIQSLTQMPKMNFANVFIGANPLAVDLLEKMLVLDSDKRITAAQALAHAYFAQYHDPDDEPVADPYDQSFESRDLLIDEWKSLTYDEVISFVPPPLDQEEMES

ΔTm [1] | ΔTm [2] | IC50 [3] | IC50 [5] | IC50 [6] | Structure (SMILES) | IC50 [4] | IC50 (Ephrin type-B receptor 2) | IC50 [7]
8.6 °C | 9.1 °C | – | – | – | CC(C)(C)c1cc(NC(=O)Nc2cccc3ccccc23)n(-c2cccc(CC(N)=O)c2)n1 | – | – | –
7.1 °C | 8.8 °C | 25 nM | – | – | NC(=O)Cc1cccc(-n2nc(-c3ccccc3F)cc2NC(=O)Nc2cccc(Cl)c2Cl)c1 | 40 nM | – | –
5.4 °C | 8 °C | 119 nM | – | – | NC(=O)Cc1cccc(-n2nc(-c3ccccc3)cc2NC(=O)Nc2cccc(Cl)c2Cl)c1 | 79 nM | – | –
– | – | – | 7 nM | – | CC(C)(C)c1cc(NC(=O)Nc2cccc(Cl)c2Cl)n(-c2ccc(CC(=O)N3CCS(=O)(=O)CC3)cc2)n1 | – | – | –
9.1 °C | 12.8 °C | – | – | 17 nM | CC(C)(C)c1cc(NC(=O)Nc2cccc(Cl)c2Cl)n(-c2cccc(CC(N)=O)c2)n1 | – | 82 nM | –

The remaining lines, values behind:

Structure (SMILES) | ΔTm [1] | ΔTm [2] | IC50 [3] | IC50 [5] | IC50 [6] | IC50 [4] | IC50 (Ephrin type-B receptor 2) | IC50 [7]
NC(=O)Cc1cccc(-n2nc(C3CCCC3)cc2NC(=O)Nc2cccc(Cl)c2Cl)c1 | – | 12.2 °C | – | – | – | 10 nM | – | –
NC(=O)Cc1cccc(-n2nc(-c3ccsc3)cc2NC(=O)Nc2cccc(Cl)c2Cl)c1 | 9.3 °C | 11.6 °C | 15 nM | – | – | 28 nM | – | –
CC(C)(C)c1cc(NC(=O)Nc2cccc3ccccc23)n(-c2cccc(C(=O)N3C(=O)OC[C@@H]3c3ccccc3)c2)n1 | – | – | – | > 10000 nM | – | – | – | –
NC(=O)Cc1cccc(-n2nc(-c3cccs3)cc2NC(=O)Nc2cccc(Cl)c2Cl)c1 | 8.5 °C | 11.2 °C | – | – | – | 66 nM | > 50000 nM | > 5 µM
